In this test the test system is 324938-238-R-J1-PDC complex spheroid growth, % test/control. Description: Anticancer human tumor 324938-238-R-J1-PDC patient-derived bladder carcinoma cell line growth inhibition [AhR]. The following applies: for viability, T/C: stronger effect = lower value; for IC50: curve of compound. An excerpt: Multicellular complex tumor spheroid response to aryl hydrocarbon receptor antagonists in combination with a variety of drugs and investigational agents in selected tumor cell lines
The current study was undertaken to assess response to aryl hydrocarbon receptor antagonists in combination with standard-of-care drugs and investigational agents in solid tumor complex spheroid models. Complex spheroids include a stromal component modeled by human endothelial cells (HUVEC) and fibroblasts modeled by human mesenchymal stem cells (MSCs). The concentration ranges selected for each drug and investigational agent were based upon clinically achievable concentrations if the clinical Cmax of the agent was known.
Compounds. The drugs and investigational agents: BAY 2416964 (NSC825713), GNF351 (NSC835774), CH-223191 (NSC835775), CPI-455 (NSC825282), aza-TdCyd (NSC777586), decitabine (NSC127716), belinostat (NSC758774), entinostat (NSC756642), pevonedistat (NSC761192), tazemetostat (NSC777109), talazoparib (NSC765396), olaparib (NSC753686), selinexor (NSC780203), nedisertib (M3814, NSC802822), bortezomib (NSC756655), venetoclax (NSC766270), doxorubicin (NSC123127), elimusertib (BAY189344, NSC800525), ceralasertib (AZD6738, NSC777638), TAK-243 (NSC785004), alisertib (NSC759677), etoposide (NSC141540), topotecan (NSC609699), eribulin (NSC707389), gemcitabine (NSC613327), carboplatin (NSC241240), cisplatin (NSC119875), and SN-38 (NSC673596) were obtained from the National Cancer Institute (NCI) Developmental Therapeutics Program Chemical Repository (32). The FDA-approved anticancer drug set is available from the Developmental Therapeutics Program at https://dtp.cancer.gov/organization/dscb/obtaining/available plates.htm. […] The stock solutions were prepared in dimethyl sulfoxide (DMSO, Sigma-Aldrich, St. Louis, MO, cat. D2650), except for the platinum compounds which were prepared in saline (Quality Biological, Gaithersburg, MD, cat. 114-055-101), at 800-fold the tested concentration and stored at -70 degrees C prior to their use. All drugs and investigational agents were tested over a range starting from a high concentration at or near the clinical Cmax and decreasing in half-log increments. If the clinical Cmax for an agent had not been determined, the highest concentration tested was 10 microM (Table 1).
Cell Culture. All cells were maintained in an incubator at 37 degrees C and 5% CO2 with 95% humidity. The PDC lines were cultured according to standard operating procedures established by the NCI PDMR (https://pdmr.cancer.gov). Briefly, all PDCs were thawed and cultured in Matrigel-coated flasks prepared with a working solution of 1X Ham's F-12 nutrient mix, without supplementation (Invitrogen, Waltham, MA, cat. 11765054), 100 U/mL penicillin-streptomycin (Invitrogen, cat. 15140122), and 2.5% Matrigel (Corning Inc., Corning, NY, cat. 354248) for the first three passages. All PDCs were cultured in complete DMEM/F-12 media containing advanced DMEM/F-12 (Invitrogen, cat. 12634028), 4.9% defined fetal bovine serum, heat inactivated (HyClone Laboratories Inc., Logan, UT, cat. SH30070.03HI), 389 ng/mL hydrocortisone (Sigma-Aldrich, cat. H4001), 9.7 ng/mL human EGF recombinant protein (Invitrogen, cat. PHG0313), 23.4 microg/mL adenine (Sigma-Aldrich, cat. A2786), 97.3 U/mL penicillin-streptomycin (Invitrogen, cat. 15140122), 1.9 mM L-glutamine (Invitrogen, cat. 25030081), and 9.7 microM Y-27632 dihydrochloride (Tocris Bioscience, Bristol, United Kingdom, cat. 1254). The PDCs were cultured in complete DMEM/F12 media without 10 microM Y-27632 dihydrochloride for at least two passages prior to the screen. The established cell lines NCI-H1341 and […] were cultured in DMEM/F-12, HEPES (Invitrogen, cat. 11330032), 5% defined fetal bovine serum (HyClone Laboratories Inc., cat. SH30070.03), ITS premix universal culture supplement [insulin (5 microg/mL), transferrin (5 microg/mL), and selenious acid (5 ng/mL)] […]

SMILES strings stand for the structures. Values joined by “and” are separate entries in the source; they are usually repeats but may differ in a detail not shown here. Equal values may be shown once. Where only a bound is given, the exact number is not on record here.
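Also: spheroids exposed to agents for seven days before viability read.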

As a reminder, the viability, T/C is the result in the treated group divided by that in the control group, in per cent. With `COc1cccc2c1C(=O)c1c(O)c3c(c(O)c1C2=O)CC(O)(C(=O)CO)CC3OC1CC(N)C(O)C(C)O1` (stereo not given), the viability, T/C is, setting by setting: (compound 0.0316 µM) 69.2% and 39.5% and 37.4%; (compound 0.1 µM) 86% and 31.1% and 26.5%; (compound 0.316 µM) 53.9% and 16.3% and 19.6%; (compound 1 µM) 2.48% and 4.61% and 4.55%; (compound 3.16 µM) 1.18% and 0.26% and 0.23%; (compound 10 µM) 0.6% and 0.23% and 0.35%.
The IC50 is the point on the concentration scale where inhibition reaches its midpoint. Take `Cn1ncnc1C1c2n[nH]c(=O)c3cc(F)cc(c23)NC1c1ccc(F)cc1` (stereo not given): the IC50 was > 0.1 µM and 0.0781 µM. For the same molecule, the viability, T/C (compound 0.000316 µM) was 107% and 101% and 111%. Also, the viability, T/C (compound 0.001 µM) is 100% and 105% and 98%. In addition, the viability, T/C (compound 0.00316 µM) was 92.3% and 101% and 90.6%. In addition, the viability, T/C (compound 0.01 µM) is 97.1% and 74.3% and 87.5%. Moreover, for the setting “compound 0.0316 µM”, the viability, T/C was 98% and 79.1% and 61.1%. Also, the viability, T/C (compound 0.1 µM) was 89.5% and 65.1% and 46.1%.
Turning to `NS(=O)(=O)OCC1CC(n2ccc3c(NC4CCc5ccccc54)ncnc32)CC1O` (stereo not given), the IC50 is 1.86 µM and 1.75 µM and 0.616 µM. Moreover, the viability, T/C (compound 0.0316 µM) is 120% and 104% and 97.8%. The viability, T/C (compound 0.1 µM) is 79.3% and 98% and 80.5%. Moreover, under “compound 0.316 µM”, the viability, T/C was 97.1% and 99.1% and 65.3%. For the same molecule, the viability, T/C (compound 1 µM) was 64.7% and 67.5% and 40.5%. Besides, where the note is “compound 3.16 µM”, the viability, T/C is 30.8% and 30.9% and 26.9%. Where the note is “compound 10 µM”, the viability, T/C is 25.3% and 31.1% and 29.9%.
Regarding `Nc1ccccc1NC(=O)c1ccc(CNC(=O)OCc2cccnc2)cc1`, the IC50 was 1.31 µM and 2.2 µM and 3.5 µM. Besides, the viability, T/C (compound 0.0316 µM) is 90% and 112% and 121%. Moreover, the viability, T/C (compound 0.1 µM) is 80.4% and 111% and 110%. Moreover, the viability, T/C (compound 0.316 µM) was 57.2% and 107% and 97.9%. Besides, the viability, T/C (compound 1 µM) is 61.7% and 69% and 70.3%. Besides, the viability, T/C (compound 3.16 µM) is 37.1% and 43.2% and 58.1%.
With `Nc1ccn(C2OC(CO)C(O)C2(F)F)c(=O)n1` (stereo not given), the viability, T/C is 68.2% and 32.2% and 53.2% (compound 0.0316 µM); 98.7% and 26% and 26.2% (compound 0.1 µM); 79.8% and 18.3% and 16.4% (compound 0.316 µM); 79.5% and 19.9% and 15.4% (compound 1 µM); 87.5% and 17.6% and 11.5% (compound 3.16 µM); 87.3% and 11.4% and 10.1% (compound 10 µM).
Consider `Nc1ncn(C2CC(O)C(CO)O2)c(=O)n1` (stereo not given), for which the IC50 is above 1 µM. Besides, the viability, T/C (compound 0.00316 µM) is 69.8% and 99.6% and 102%. For the same molecule, where the note is “compound 0.01 µM”, the viability, T/C is 96.2% and 113% and 94.2%. Besides, the viability, T/C (compound 0.0316 µM) was 82.3% and 98.6% and 85.2%. Besides, the viability, T/C (compound 0.1 µM) was 83.7% and 98.3% and 96.2%. Besides, for the setting “compound 0.316 µM”, the viability, T/C is 128% and 80.2% and 81.7%. The viability, T/C (compound 1 µM) was 92.8% and 72% and 68.3%.
On to `Nc1ncn(C2CC(O)C(CO)S2)c(=O)n1` (stereo not given), for which the IC50 was > 0.3 µM and 0.215 µM. For the same molecule, the viability, T/C (compound 0.000949 µM) was 106% and 103% and 93.4%. The viability, T/C (compound 0.003 µM) is 86.6% and 105% and 95.5%. The viability, T/C (compound 0.00949 µM) was 86.8% and 106% and 94.1%. For the same molecule, the viability, T/C (compound 0.03 µM) was 116% and 92.5% and 88.8%. Besides, the viability, T/C (compound 0.0949 µM) was 96.4% and 71.2% and 66.3%. Further, the viability, T/C (compound 0.3 µM) was 138% and 60.1% and 43.4%.
`O=C(C=Cc1cccc(S(=O)(=O)Nc2ccccc2)c1)NO`: the IC50 was 2.79 µM and 2.98 µM and 2.55 µM. Also, the viability, T/C (compound 0.0316 µM) is 100% and 110% and 114%. Moreover, for the setting “compound 0.1 µM”, the viability, T/C is 92% and 98.7% and 110%. The viability, T/C (compound 0.316 µM) was 109% and 89.2% and 81.5%. For the setting “compound 1 µM”, the viability, T/C is 85.5% and 66.9% and 72.5%. In addition, under “compound 3.16 µM”, the viability, T/C is 46% and 49.9% and 51.9%.
Consider `O=C(C=Cn1cnc(-c2cc(C(F)(F)F)cc(C(F)(F)F)c2)n1)NNc1cnccn1`, for which the IC50 was 0.681 µM and 0.184 µM and 0.0921 µM. Moreover, for the setting “compound 0.00949 µM”, the viability, T/C was 129% and 95.9% and 85.8%. Further, the viability, T/C (compound 0.03 µM) is 100% and 95.8% and 75.1%. Besides, where the note is “compound 0.0949 µM”, the viability, T/C was 71.5% and 69.7% and 47.7%. Also, the viability, T/C (compound 0.3 µM) was 58.5% and 34.4% and 27%. The viability, T/C (compound 0.949 µM) was 45.4% and 16.9% and 15.9%.
As for `O=C(c1cc(Cc2n[nH]c(=O)c3ccccc23)ccc1F)N1CCN(C(=O)C2CC2)CC1`, the half-inhibitory concentration (IC50) is > 10 µM and 9.37 µM. Further, the viability, T/C (compound 0.0316 µM) was 115% and 100% and 97.8%. The viability, T/C (compound 0.1 µM) was 73.1% and 102% and 96.9%. For the same molecule, the viability, T/C (compound 0.316 µM) was 66% and 103% and 82%. Besides, under “compound 1 µM”, the viability, T/C is 86.6% and 110% and 88.1%. In addition, the viability, T/C (compound 3.16 µM) was 69.2% and 90.5% and 77.8%. Also, the viability, T/C (compound 10 µM) is 79% and 74.1% and 47.3%.

These data come from PubChem BioAssay AID1918995 (Molecular Pharmacology Branch, DTP, NCI, 2023).
